The values below come from PubChem BioAssay (NCI).

By GI50 is commonly meant the concentration at which growth is held to half of that of the control. Broadly, the TGI is the concentration giving total growth inhibition. High values mean less potent growth arrest, low ones more potent growth arrest.

Test systems include BT-549 breast; CAKI-1 renal; COLO 205 colon; HCT-15 colon; HOP-62 NSCLC; HOP-92 NSCLC; LOX IMVI melanoma; NCI-H226 lung; SF-268 CNS; SK-OV-3 ovarian.
Holding throughout (assay): DTP human tumour cell line panel, 48 h

Values joined by “and” are separate entries in the source; they are usually repeats but may differ in a detail not shown here. Equal entries are not always repeated.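 All cell lines were grown in 96-well plates and treated with compound for 48 hours. GI50 marks 50% less growth. TGI is the concentration that stops growth completely.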 Bounds are passed on as bounds.

In the case of `COc1cccc(C2SC(C)C(=O)N2NC(=O)C(O)c2ccccc2)c1` (stereo not drawn), the GI50 in the experiment with BT-549 breast, in the experiment on CAKI-1 renal, with COLO 205 colon, in the experiment on HCT-15 colon, with HOP-62 NSCLC and in the experiment on HOP-92 NSCLC was greater than 100 µM in each case. Moreover, the GI50 in the experiment with LOX IMVI melanoma, with NCI-H226 lung, in the experiment with SF-268 CNS and in the experiment with SK-OV-3 ovarian was greater than 100 µM throughout. Further, the TGI with BT-549 breast, in the experiment with CAKI-1 renal, in the experiment with COLO 205 colon, with HCT-15 colon, in the experiment with HOP-62 NSCLC and in the experiment on HOP-92 NSCLC was greater than 100 µM throughout. The TGI with LOX IMVI melanoma, in the experiment with NCI-H226 lung, in the experiment on SF-268 CNS and with SK-OV-3 ovarian was greater than 100 µM each time.
With `COc1ccc2c(c1)/C(=C\c1c(-c3ccccc3)nc3sccn13)C(=O)N2`, the GI50 in the experiment on BT-549 breast is 3 µM; in the experiment on CAKI-1 renal it was 0.0357 µM; with COLO 205 colon, 18.7 µM; in the experiment with HOP-62 NSCLC it was 2.42 µM; in the experiment with HOP-92 NSCLC, greater than 100 µM; in the experiment with LOX IMVI melanoma it was 6.09 µM. Moreover, the figures for the GI50 in the experiment with NCI-H226 lung and in the experiment on SF-268 CNS were 3.44 µM and 2.11 µM, respectively. Also, the total growth inhibition concentration (TGI) in the experiment on BT-549 breast was 13.9 µM; in the experiment with CAKI-1 renal, 0.37 µM; in the experiment with COLO 205 colon it was 45.8 µM; with HCT-15 colon, greater than 35.6 µM; with HOP-62 NSCLC, 14.9 µM; in the experiment on HOP-92 NSCLC, greater than 100 µM. Further, the concentration for total growth inhibition (TGI) in the experiment on LOX IMVI melanoma was 22.2 µM; in the experiment on NCI-H226 lung, 33.7 µM; with SF-268 CNS, 13.4 µM; with SK-OV-3 ovarian, greater than 65.8 µM.
`C[C@]1(c2nc3c(C(N)=O)cccc3[nH]2)CCCN1`: the GI50 with BT-549 breast was greater than 100 µM; with CAKI-1 renal it was 59 µM and 74.9 µM; in the experiment on COLO 205 colon it was 72.8 µM and > 100 µM; with HCT-15 colon it was 54.4 µM and > 100 µM; with HOP-62 NSCLC it was greater than 100 µM; in the experiment on HOP-92 NSCLC, greater than 67.9 µM. For the same molecule, the GI50 is 66.1 µM and 97.7 µM with LOX IMVI melanoma; 50.6 µM and > 74.5 µM in the experiment with NCI-H226 lung; greater than 100 µM in the experiment with SF-268 CNS; greater than 100 µM in the experiment on SK-OV-3 ovarian. Besides, the TGI in the experiment with BT-549 breast, in the experiment on CAKI-1 renal, in the experiment on COLO 205 colon, in the experiment on HCT-15 colon, in the experiment on HOP-62 NSCLC and in the experiment with HOP-92 NSCLC was greater than 100 µM each time. Also, the total growth inhibition concentration (TGI) in the experiment on LOX IMVI melanoma, in the experiment with NCI-H226 lung, with SF-268 CNS and in the experiment on SK-OV-3 ovarian was greater than 100 µM throughout.
`COc1cc(/C=C/C(=O)c2ccccc2O)ccc1OCCCOc1cc2c(cc1OC)C(=O)N1CCC[C@H]1C=N2`: the 50% growth inhibitory concentration (GI50) in the experiment on BT-549 breast was 0.0179 µM; with CAKI-1 renal it was 0.0403 µM; in the experiment on COLO 205 colon, 0.0348 µM; with HCT-15 colon, 0.255 µM; in the experiment on HOP-62 NSCLC, 0.0392 µM; in the experiment with HOP-92 NSCLC it was 0.0499 µM. The concentration for 50% growth inhibition (GI50) was 0.0204 µM in the experiment on LOX IMVI melanoma, 0.181 µM in the experiment on NCI-H226 lung, 0.0247 µM in the experiment on SF-268 CNS and 0.316 µM in the experiment with SK-OV-3 ovarian. Besides, the TGI is 0.0476 µM in the experiment on BT-549 breast; 0.313 µM in the experiment on CAKI-1 renal; 0.144 µM with COLO 205 colon; 1.05 µM with HCT-15 colon; 13.1 µM in the experiment with HOP-62 NSCLC; 0.99 µM with HOP-92 NSCLC. In addition, the concentration for total growth inhibition (TGI) in the experiment on LOX IMVI melanoma was determined as 0.0489 µM; with NCI-H226 lung it was 0.541 µM; in the experiment on SF-268 CNS, 0.064 µM; in the experiment on SK-OV-3 ovarian it was 3.82 µM.
As for `COc1ccc(NC(=O)c2ccc(C(F)(F)F)nc2Nc2ccc(Cl)cc2C)cc1Cl`, the GI50 is 4.88 µM in the experiment on BT-549 breast; 4.41 µM with CAKI-1 renal; 2.72 µM in the experiment with COLO 205 colon; 7.12 µM in the experiment on HCT-15 colon; 10.7 µM in the experiment with HOP-62 NSCLC; 2.9 µM in the experiment with HOP-92 NSCLC. The GI50 in the experiment on LOX IMVI melanoma was 3.96 µM; with NCI-H226 lung, 2.99 µM; in the experiment with SF-268 CNS, 5.4 µM; in the experiment with SK-OV-3 ovarian it was 4.67 µM. Moreover, the TGI in the experiment with BT-549 breast was 18.6 µM; in the experiment on CAKI-1 renal, 18.9 µM; with COLO 205 colon, 10.7 µM; in the experiment on HCT-15 colon, 20.5 µM; in the experiment on HOP-62 NSCLC, 23.9 µM; in the experiment on HOP-92 NSCLC it was 6.79 µM. Besides, the concentration for total growth inhibition (TGI) in the experiment with LOX IMVI melanoma came to 13.5 µM; in the experiment on NCI-H226 lung, 14.4 µM; with SF-268 CNS it was 21.3 µM; in the experiment on SK-OV-3 ovarian it was 18.6 µM.
Consider `Oc1cccc2ccc(SSc3ccc4cccc(O)c4n3)nc12`, for which the TGI with BT-549 breast was found to be 37.6 µM; in the experiment with CAKI-1 renal, 37.3 µM; in the experiment with COLO 205 colon, 35.2 µM; with HCT-15 colon it was 53.3 µM; in the experiment on HOP-62 NSCLC, 39.9 µM; with HOP-92 NSCLC it was 55.9 µM. The TGI is 33.8 µM in the experiment on LOX IMVI melanoma, greater than 100 µM with NCI-H226 lung, 75.4 µM in the experiment with SF-268 CNS and 31.7 µM in the experiment with SK-OV-3 ovarian.
Regarding `C=C[C@@H]1CCC/C=C/[C@@H]2C[C@H](O)C[C@H]2[C@H](O)/C=C/C(=O)O1`, the GI50 with BT-549 breast is 0.543 µM; in the experiment on CAKI-1 renal, 1.89 µM; in the experiment with COLO 205 colon, 0.224 µM; in the experiment on HCT-15 colon, 2.23 µM; in the experiment with HOP-62 NSCLC, 1.33 µM; with HOP-92 NSCLC, 0.702 µM. The concentration for 50% growth inhibition (GI50) in the experiment with LOX IMVI melanoma was 0.269 µM; with NCI-H226 lung, 0.265 µM; with SF-268 CNS, 0.44 µM; in the experiment with SK-OV-3 ovarian, 0.709 µM. Moreover, the total growth inhibition concentration (TGI) in the experiment with BT-549 breast is greater than 37.1 µM; in the experiment on CAKI-1 renal, greater than 50.3 µM; in the experiment on COLO 205 colon, 0.441 µM; with HCT-15 colon it was greater than 100 µM; in the experiment on HOP-62 NSCLC it was greater than 100 µM; in the experiment on HOP-92 NSCLC, 5.95 µM. The total growth inhibition concentration (TGI) is 0.815 µM in the experiment on LOX IMVI melanoma, 0.784 µM with NCI-H226 lung, greater than 100 µM in the experiment with SF-268 CNS and greater than 100 µM with SK-OV-3 ovarian.
`Cc1ccc(NC(=O)CCc2nnc3s/c(=C\C=C\c4ccccc4)c(=O)n23)cc1`: the TGI with BT-549 breast, in the experiment on CAKI-1 renal, in the experiment on COLO 205 colon, in the experiment with HCT-15 colon, in the experiment on HOP-62 NSCLC and with HOP-92 NSCLC was greater than 100 µM each time. In addition, the TGI is greater than 86.8 µM in the experiment on LOX IMVI melanoma, greater than 100 µM in the experiment on NCI-H226 lung, greater than 100 µM with SF-268 CNS and greater than 100 µM with SK-OV-3 ovarian.
As for `CCOc1ccc(Nc2ccnc3cc(Cl)ccc23)cc1`, the GI50 with BT-549 breast is greater than 100 µM; in the experiment on CAKI-1 renal, greater than 100 µM; with COLO 205 colon it was greater than 100 µM; in the experiment with HCT-15 colon it was 4.38 µM; with HOP-62 NSCLC, greater than 100 µM; with HOP-92 NSCLC, 16.1 µM. Further, the GI50 in the experiment with LOX IMVI melanoma is 41.9 µM; in the experiment with NCI-H226 lung, 79.7 µM; with SF-268 CNS, 57 µM; in the experiment with SK-OV-3 ovarian, greater than 100 µM. The TGI in the experiment on BT-549 breast, in the experiment on CAKI-1 renal, with COLO 205 colon, in the experiment with HCT-15 colon, in the experiment with HOP-62 NSCLC and with HOP-92 NSCLC was greater than 100 µM in each case. For the same molecule, the concentration for total growth inhibition (TGI) in the experiment on LOX IMVI melanoma, in the experiment on NCI-H226 lung, in the experiment on SF-268 CNS and in the experiment with SK-OV-3 ovarian was greater than 100 µM throughout.
In the case of `CN1CCN(c2ccncc2S(=O)(=O)N2CCN(C)CC2)CC1`, the TGI with BT-549 breast, with CAKI-1 renal, with COLO 205 colon, in the experiment with HCT-15 colon, in the experiment with HOP-62 NSCLC and in the experiment on HOP-92 NSCLC was greater than 100 µM throughout. Moreover, the TGI with LOX IMVI melanoma, with NCI-H226 lung, with SF-268 CNS and with SK-OV-3 ovarian was greater than 100 µM throughout.
Regarding `FC(F)(F)c1cccc(Oc2ccc(Nc3ncnc4ccc(OCCCN5CCOCC5)cc34)cc2Cl)c1`, the GI50 is 3.09 µM in the experiment on BT-549 breast; 1.34 µM with CAKI-1 renal; 2 µM in the experiment with COLO 205 colon; 1.48 µM with HCT-15 colon; 2.33 µM with HOP-62 NSCLC; 1.76 µM with HOP-92 NSCLC. The GI50 with LOX IMVI melanoma was 1.71 µM; in the experiment with NCI-H226 lung, 15 µM; in the experiment with SF-268 CNS it was 2.06 µM; in the experiment with SK-OV-3 ovarian, 1.38 µM. Moreover, the TGI with BT-549 breast came out at 16.7 µM; in the experiment on CAKI-1 renal, 6.62 µM; in the experiment on COLO 205 colon it was 4.47 µM; in the experiment with HCT-15 colon, 3.16 µM; with HOP-62 NSCLC, 5.18 µM; in the experiment on HOP-92 NSCLC, 7.82 µM. In addition, the concentration for total growth inhibition (TGI) with LOX IMVI melanoma was 3.45 µM; in the experiment with NCI-H226 lung, 41 µM; with SF-268 CNS it was 6.82 µM; with SK-OV-3 ovarian, 15.5 µM.
As for `CCC(CO)Nc1nc(NCc2ccccc2)c2n[nH]c(C(C)C)c2n1` (stereo not drawn), the GI50 with BT-549 breast was 10.7 µM; in the experiment with CAKI-1 renal, 3 µM; with COLO 205 colon, 4.45 µM; in the experiment with HCT-15 colon it was 14.7 µM; in the experiment on HOP-62 NSCLC, 13.9 µM; in the experiment on HOP-92 NSCLC it was 3.75 µM. The GI50 in the experiment with LOX IMVI melanoma is 7.55 µM; in the experiment on NCI-H226 lung it was 23.8 µM; with SF-268 CNS it was 10.7 µM; in the experiment on SK-OV-3 ovarian, 6.4 µM. Besides, the TGI was 23.7 µM in the experiment on BT-549 breast; 16.2 µM in the experiment on CAKI-1 renal; 17.1 µM with COLO 205 colon; 49.7 µM in the experiment with HCT-15 colon; 31.8 µM in the experiment on HOP-62 NSCLC; 19.5 µM in the experiment with HOP-92 NSCLC. The TGI was found to be 20.9 µM in the experiment on LOX IMVI melanoma, 60.8 µM in the experiment with NCI-H226 lung, 26.4 µM in the experiment with SF-268 CNS and 20.7 µM in the experiment on SK-OV-3 ovarian.
